Results: ChEMBL document CHEMBL3352251, “Structural factors affecting affinity of cytotoxic oxathiole-fused chalcones toward tubulin” (Eur J Med Chem, 2015)
The source made the active and inactive calls. The rule behind the calls is not given here.

What was measured:
[1] = system: A549; test: cells; details: Homo sapiens, A549, 72 h
Description: Cytotoxicity against human A549 cells after 72 hrs by MTT assay

[2] = cells; details: Homo sapiens, HCT-116, 72 h
[3] = system: HeLa; test: cells; details: Homo sapiens, 72 h
Description: Cytotoxicity against human HeLa cells after 72 hrs by MTT assay

[4] = biological target: Tubulin; test: Inhibition of tubulin (unknown origin) polymerization after 1 hr by multiplate reader method; format: protein-complex assay, Homo sapiens
[5] = biological target: Tubulin; test: Inhibition of colchicine binding to tubulin (unknown origin); format: protein-complex assay, Homo sapiens
[6] = system: A549; test: Induction of growth arrest in human A549 cells assessed as MPM2 levels level at 1 uM after 6 to 48 hrs by immunofluorescence microscopy; format: functional, cell-based
[7] = biological target: Tubulin (Homo sapiens) (UniProt P68371+Q9H4B7+P0DPH7+P68366+Q13509+Q71U36+P04350+Q3ZCM7+P07437+P68363+Q9BQE3+Q6PEY2+Q13885+Q9BVA1+Q9BUF5); test: Inhibition of tubulin in human A549 cells assessed as disruption of microtubules at 1 uM incubated for 6 hrs by immunofluorescence staining; format: cell-based
[8] = system: A549; test: Induction of cell cycle arrest in human A549 cells assessed as accumulation at G2/M phase accumulation at 1 uM after 48 hrs by propidium iodide staining based flow cytometry; format: functional
[9] = system: A549; test: Increase in polyploid cells in human A549 cells at 1 uM after 24 to 72 hrs by propidium iodide staining based flow cytometry; format: functional, cell-based
[10] = system: A549; test: Induction of apoptosis in human A549 cells at 1 uM after 24 to 72 hrs by propidium iodide staining based flow cytometry; format: functional, cell-based
[11] = system: A549; test: Induction of growth arrest in human A549 cells assessed as mitotic chromosomes level at 1 uM after 6 to 48 hrs by fluorescence microscopy; format: functional, cell-based

| Structure (SMILES) | IC50 [1] [nM] | IC50 [2] [nM] | IC50 [3] [nM] | also measured |
| --- | --- | --- | --- | --- |
| COc1ccc(/C=C/C(=O)c2cc3c(cc2OC)OCS3)cc1OC | 1190 | 740 | 568 |  |
| O=C(/C=C/c1cccc(Cl)c1)c1c(O)ccc2c1SCO2 | 2610 | 1310 | 2010 |  |
| COc1cc2c(cc1C(=O)/C=C/c1ccc(CCN(C)C)cc1)SCO2 | 3400 | 2540 | 1970 |  |
| O=C(/C=C/c1ccc(Br)cc1)c1c(O)ccc2c1SCO2 | 3910 | 2870 | 2650 |  |
| COc1cccc2c1C(=O)c1c(O)c3c(c(O)c1C2=O)C[C@@](O)(C(=O)CO)C[C@@H]3O[C@H]1C[C@H](N)[C@H](O)[C@H](C)O1 [DOXORUBICIN] | 124 | 69 | 154 |  |
| COc1cc2c(cc1C(=O)/C=C/c1ccc(Br)cc1)SCO2 | 3120 | 2160 | 2370 |  |
| O=C(/C=C/c1ccccc1Cl)c1c(O)ccc2c1SCO2 | 3070 | 1670 | 3070 |  |
| COc1cc(OC)c(/C=C/C(=O)c2cc3c(cc2OCC(=O)O)OCS3)c(OC)c1 | > 10000 | > 10000 | > 10000 |  |
| O=C(/C=C/c1ccccc1)c1c(O)ccc2c1SCO2 | 3660 | 2210 | 2750 |  |
| CCCOc1cc2c(cc1C(=O)/C=C/c1ccc(OC)c(O)c1)SCO2 | 12 | 12 | 5 |  |
| COc1ccc(/C=C/C(=O)c2cc3c(cc2OCCN2CCOCC2)OCS3)cc1OC | 3780 | 2290 | 3730 |  |
| COc1ccc(/C=C/C(=O)c2cc3c(cc2OCCN2CCOCC2)OCS3)cc1F | 4290 | 1220 | 710 |  |
| COc1ccc(/C=C/C(=O)c2c(O)ccc3c2SCO3)cc1F | 9430 | 6590 | 6840 |  |
| COc1cc2c(cc1C(=O)/C=C/c1cc(OC)c(OC)c(OC)c1)SCO2 | 3470 | 2230 | 4060 |  |
| COc1cc2c(cc1C(=O)/C=C/c1cc(Br)c(OC)c(OC)c1)SCO2 | 3430 | 2070 | 4040 |  |
| COc1ccc(/C=C/C(=O)c2cc3c(cc2OCC(=O)O)OCS3)cc1 | > 10000 | > 10000 | > 10000 |  |
| COc1ccc(/C=C/C(=O)c2c(O)ccc3c2SCO3)cc1OC | 5670 | 2820 | 4550 |  |
| COc1ccc(/C=C/C(=O)c2c(O)ccc3c2SCO3)cc1 | 10600 | 6900 | 7700 |  |
| COc1cc(/C=C/C(=O)c2cc3c(cc2OCC(=O)O)OCS3)cc(OC)c1OC | > 10000 | > 10000 | > 10000 |  |

| Structure (SMILES) | IC50 [1] [nM] | IC50 [2] [nM] | IC50 [3] [nM] | also measured |
| --- | --- | --- | --- | --- |
| CCCOc1cc2c(cc1C(=O)/C=C/c1ccc(OC)c(O)c1)OCS2 | 9 |  |  |  |
| CN(C)CCOc1ccc(/C=C/C(=O)c2c(O)ccc3c2SCO3)cc1 | 2050 | 1470 | 1530 |  |
| COc1ccc(/C=C/C(=O)c2cc3c(cc2OC)SCO3)cc1 |  |  |  | IC50 [4]: 4150 nM; IC50 [5]: 108 nM |
| O=C(/C=C/c1ccc(Cl)cc1Cl)c1cc2c(cc1OCCN1CCOCC1)OCS2 | 1730 | 980 | 1550 |  |
| COc1cc2c(cc1C(=O)/C=C/c1cccc(OC)c1OC)SCO2 | 5040 | 3160 | 4020 |  |
| COc1ccc(/C=C/C(=O)c2cc3c(cc2OC)OCS3)cc1 | 352 | 275 | 109 | Activity [6]: Active; IC50 [4]: 5800 nM; IC50 [5]: 489 nM; inhibition [7]: Active; Activity [8]: Active; Activity [9]: Active; Activity [10]: Active; Activity [11]: Active |
| COc1cc2c(cc1C(=O)/C=C/c1ccc(OCC(=O)O)cc1)SCO2 | > 10000 | > 10000 | > 10000 |  |
| CC(=O)O[C@H]1C(=O)[C@@]2(C)[C@H]([C@H](OC(=O)c3ccccc3)[C@]3(O)C[C@H](OC(=O)[C@H](O)[C@@H](NC(=O)c4ccccc4)c4ccccc4)C(C)=C1C3(C)C)[C@]1(OC(C)=O)CO[C@@H]1C[C@@H]2O [PACLITAXEL] |  | 4 |  |  |
| COc1cc2c(cc1C(=O)/C=C/c1ccccc1)SCO2 | 4100 | 2250 | 1920 |  |
| COc1cc2c(cc1C(=O)/C=C/c1cccc(Cl)c1)SCO2 | 2040 | 1180 | 1440 |  |
| COc1cc(OC)c(/C=C/C(=O)c2cc3c(cc2OC)OCS3)c(OC)c1 | 308 | 352 | 152 |  |
| COc1ccc(/C=C/C(=O)c2cc3c(cc2OC)SCO3)cc1O | 22 |  |  |  |
| COc1cc2c(cc1C(=O)/C=C/c1ccc(O)cc1)SCO2 | 9080 | 8570 | 3260 |  |
| COc1cc(/C=C/C(=O)c2cc3c(cc2OCCN2CCOCC2)OCS3)cc(OC)c1OC | 2420 | 1440 | 2370 |  |
| COc1ccc(/C=C/C(=O)c2cc3c(cc2OC)OCS3)cc1F | 320 | 209 | 111 |  |
| COc1ccc(OC)c(/C=C/C(=O)c2cc3c(cc2OCCN2CCOCC2)OCS3)c1 | 2720 | 1440 | 2390 |  |
| COc1ccc(/C=C\c2cc(OC)c(OC)c(OC)c2)cc1O [COMBRETASTATIN A4] |  | 4 | 3 |  |
| COc1cc2c(cc1C(=O)/C=C/c1ccc(Cl)cc1)SCO2 | 3000 | 2090 | 1780 |  |
